Measurements: patent US5140044A, “UCN-1028D derivatives” (Kyowa Hakko Kogyo Co., Ltd., priority 1989, dated 1992)
In brackets after ≈: the same amount, converted by molar mass.

How the values were obtained:
BALB 3T3/H-ras = experiment: Anti-tumor activity: growth inhibition of BALB 3T3 cells transformed with H-ras (Giemsa staining); assay type: cell-based; details: Mus musculus, BALB/3T3, 72 h, read-out: IC50 BALB 3T3/H-ras Inhibitory Activity
Procedure: The anti-tumor activity was determined using BALB 3T3 cells transformed with the carcinogenic gene H-ras (hereafter referred to as BALB 3T3/H-ras).
BALB 3T3/H-ras cells were suspended in a medium comprising DME medium (manufactured by Nissui Pharmaceutical Co., Ltd.) and 10% fetal calf serum (hereafter referred to as medium A) to a concentration of 3.0×10^4 /cells ml. The cell suspension thus prepared was put into wells of a 96-well microtiter plate in an amount of 0.1 ml per well. After culturing at 37° C. for 20 hours in a CO2 -incubator, 0.1 ml each of a test solution appropriately diluted with medium A was added to each well. The cells were further cultured at 37° C. for 72 hours in the CO2 -incubator and the culture supernatant was removed. After being washed once with physiological saline, the residue was treated with 0.1 ml of methanol for 10 minutes to fix the cells. Thereafter, the cells were stained with 0.1 ml of Giemsa staining solution [Giemsa staining stock solution (Merck Art 9204; manufactured by Merck Inc.) : physiological saline=1 : 10] for 5 minutes. After the staining solution was removed, the residue was washed once with 0.2 ml of water. The pigment was extracted with 0.2 ml of 0.1 N hydrochloric acid and the absorbance at 620 nm was measured with a microplate reader. By comparing the absorbance of untreated cells with those of the cells treated with the test compound at known concentrations, the concentration of the test compound at which the growth of the cells is inhibited by 50% (IC50) was calculated.

Protein Kinase C = experiment: Protein kinase C inhibitory activity (method of Kikkawa et al.; crude enzyme from rat brain, Histone Type II S phosphorylation); assay type: biochemical; details: crude enzyme partially purified from rat brain; [γ-32P]ATP, 30° C., 3 minutes, pH 7.5
Procedure: Protein kinase C inhibitory activity
The protein kinase C inhibitory activity was measured by the method of Kikkawa, et al. [Journal of Biological Chemistry, 257, 13341 (1982)].
That is, 10 μl of a test solution containing a UCN-1028D derivative was added to 250 μl of a solution containing 2.5 μmoles of magnesium acetate, 50 μg of Histone Type II S (manufactured by Sigma Co., Ltd.), 20 μg of phosphatidyl serine, 0.8 μg of diolein, 25 nmoles of CaCl2, 5 μg of crude enzyme (partially purified from rat brain according to the method of Kikkawa, et al.) and 5 μmoles of Tris-hydrochloride buffer (pH 7.5), followed by incubation at 30° C. for 3 minutes. Then, phosphorylation was initiated by addition of 1.25 nmoles of [γ-^32 P]ATP (5 to 10×10^3 cpm/nmole), followed by incubation at 30° C. for 3 minutes The reaction was stopped by adding 25% trichloroacetic acid (TCA), and the reaction solution was filtered through a cellulose acetate membrane (pore size: 0.45 μm) (manufactured by Toyo Filter Paper Co., Ltd.). After the membrane was washed four times with 5% TCA, radioactivity remaining on the membrane was measured. As a control, the same procedure as above was repeated without addition of the test solution and radioactivity was likewise measured. The concentration of the test solution showing 50% inhibition as compared with the control was expressed as IC50.

| Compound | IC50 (BALB 3T3/H-ras) | IC50 Protein Kinase C Inhibitory Activity (Protein Kinase C) |
| --- | --- | --- |
| COc1c(C[C@@H](C)OC(C)=O)c2c3c(C[C@@H](C)OC(C)=O)c(OC)c(=O)c4c(O)cc(OC)c(c5c(OC)cc(O)c(c1=O)c52)c43 [Compound 1, 14,17-di-O-acetyl UCN-1028D] | 0.048 µg/mL (≈ 0.0756 µM) | 1.6 µg/mL (≈ 2.52 µM) |
| CCCC(=O)O[C@H](C)Cc1c(OC)c(=O)c2c(O)cc(OC)c3c4c(OC)cc(O)c5c(=O)c(OC)c(C[C@@H](C)OC(=O)CCC)c(c1c23)c54 [Compound 2, 14,17-di-O-butyryl UCN-1028D] | 0.023 µg/mL (≈ 0.0333 µM) | 0.14 µg/mL (≈ 0.203 µM) |
| CCCCCC(=O)O[C@H](C)Cc1c(OC)c(=O)c2c(O)cc(OC)c3c4c(OC)cc(O)c5c(=O)c(OC)c(C[C@@H](C)OC(=O)CCCCC)c(c1c23)c54 [Compound 3, 14,17-di-O-hexanoyl UCN-1028D] | 0.12 µg/mL (≈ 0.161 µM) | 0.035 µg/mL (≈ 0.0469 µM) |
| CCCCCCC(=O)O[C@H](C)Cc1c(OC)c(=O)c2c(O)cc(OC)c3c4c(OC)cc(O)c5c(=O)c(OC)c(C[C@@H](C)OC(=O)CCCCCC)c(c1c23)c54 [Compound 4, 14,17-di-O-heptanoyl UCN-1028D] | 0.52 µg/mL (≈ 0.671 µM) | 0.03 µg/mL (≈ 0.0387 µM) |
| CCCCCCCCCC(=O)O[C@H](C)Cc1c(OC)c(=O)c2c(O)cc(OC)c3c4c(OC)cc(O)c5c(=O)c(OC)c(C[C@@H](C)OC(=O)CCCCCCCCC)c(c1c23)c54 [Compound 5, 14,17-di-O-decanoyl UCN-1028D] | 7 µg/mL (≈ 8.15 µM) | 0.068 µg/mL (≈ 0.0792 µM) |
| CCCCCCCCCCCC(=O)O[C@H](C)Cc1c(OC)c(=O)c2c(O)cc(OC)c3c4c(OC)cc(O)c5c(=O)c(OC)c(C[C@@H](C)OC(=O)CCCCCCCCCCC)c(c1c23)c54 [Compound 6, 14,17-di-O-dodecanoyl UCN-1028D] | 4.8 µg/mL (≈ 5.24 µM) | 0.15 µg/mL (≈ 0.164 µM) |
| C=CCCC(=O)O[C@H](C)Cc1c(OC)c(=O)c2c(O)cc(OC)c3c4c(OC)cc(O)c5c(=O)c(OC)c(C[C@@H](C)OC(=O)CCC=C)c(c1c23)c54 [Compound 7, 14,17-di-O-pentenoyl UCN-1028D] | 0.17 µg/mL (≈ 0.238 µM) | 0.06 µg/mL (≈ 0.0839 µM) |
| COc1c(C[C@@H](C)OC(=O)C2CCCCC2)c2c3c(C[C@@H](C)OC(=O)C4CCCCC4)c(OC)c(=O)c4c(O)cc(OC)c(c5c(OC)cc(O)c(c1=O)c52)c43 [Compound 8, 14,17-di-O-cyclohexanecarbonyl UCN-1028D] | 0.56 µg/mL (≈ 0.726 µM) | 0.017 µg/mL (≈ 0.0221 µM) |
| COc1c(C[C@@H](C)OC(=O)Cc2ccccc2)c2c3c(C[C@@H](C)OC(=O)Cc4ccccc4)c(OC)c(=O)c4c(O)cc(OC)c(c5c(OC)cc(O)c(c1=O)c52)c43 [Compound 9, 14,17-bis-O-phenylacetyl UCN-1028D] | 0.11 µg/mL (≈ 0.14 µM) | 0.054 µg/mL (≈ 0.0686 µM) |
| COc1c(C[C@@H](C)OC(=O)CCc2ccccc2)c2c3c(C[C@@H](C)OC(=O)CCc4ccccc4)c(OC)c(=O)c4c(O)cc(OC)c(c5c(OC)cc(O)c(c1=O)c52)c43 [Compound 10, 14,17-bis-O-3-phenylpropionyl UCN-1028D] | 0.95 µg/mL (≈ 1.17 µM) | 0.045 µg/mL (≈ 0.0552 µM) |
| COc1c(C[C@@H](C)OC(=O)CCCc2ccccc2)c2c3c(C[C@@H](C)OC(=O)CCCc4ccccc4)c(OC)c(=O)c4c(O)cc(OC)c(c5c(OC)cc(O)c(c1=O)c52)c43 [Compound 11, 14,17-bis-O-4-phenylbutyryl UCN-1028D] | 2.6 µg/mL (≈ 3.08 µM) | 0.035 µg/mL (≈ 0.0415 µM) |
| COc1c(C[C@@H](C)OC(=O)Cc2cccc3ccccc23)c2c3c(C[C@@H](C)OC(=O)Cc4cccc5ccccc45)c(OC)c(=O)c4c(O)cc(OC)c(c5c(OC)cc(O)c(c1=O)c52)c43 [Compound 12, 14,17-bis-O-1-naphthylacetyl UCN-1028D] | 1.3 µg/mL (≈ 1.47 µM) | 0.05 µg/mL (≈ 0.0564 µM) |
